“Also recorded” adds a separate entry of the source.
How the values were obtained:
RGS7/Gq = target: T1, RGS7/Gq (Homo sapiens, UniProt P49802+P50148); assay: Co-immunoprecipitation of Gq with RGS7 from transfected Hek 293 cells; assay type: binding; conditions: immunoprecipitation blot
T1 sequence (P49802 1-469 isoform P49802-2): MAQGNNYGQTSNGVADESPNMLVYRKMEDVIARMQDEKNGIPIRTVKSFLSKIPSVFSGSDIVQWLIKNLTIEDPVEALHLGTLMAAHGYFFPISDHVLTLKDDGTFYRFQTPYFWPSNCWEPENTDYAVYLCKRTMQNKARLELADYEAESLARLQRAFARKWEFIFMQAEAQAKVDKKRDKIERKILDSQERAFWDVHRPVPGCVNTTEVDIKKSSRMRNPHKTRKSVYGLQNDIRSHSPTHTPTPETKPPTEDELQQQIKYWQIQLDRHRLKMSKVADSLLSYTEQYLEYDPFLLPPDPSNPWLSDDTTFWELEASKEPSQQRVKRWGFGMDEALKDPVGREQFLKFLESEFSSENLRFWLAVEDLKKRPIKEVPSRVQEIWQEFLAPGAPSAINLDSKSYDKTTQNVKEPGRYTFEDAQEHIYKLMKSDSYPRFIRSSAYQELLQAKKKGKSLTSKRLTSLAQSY
T1 sequence (P50148 1-359): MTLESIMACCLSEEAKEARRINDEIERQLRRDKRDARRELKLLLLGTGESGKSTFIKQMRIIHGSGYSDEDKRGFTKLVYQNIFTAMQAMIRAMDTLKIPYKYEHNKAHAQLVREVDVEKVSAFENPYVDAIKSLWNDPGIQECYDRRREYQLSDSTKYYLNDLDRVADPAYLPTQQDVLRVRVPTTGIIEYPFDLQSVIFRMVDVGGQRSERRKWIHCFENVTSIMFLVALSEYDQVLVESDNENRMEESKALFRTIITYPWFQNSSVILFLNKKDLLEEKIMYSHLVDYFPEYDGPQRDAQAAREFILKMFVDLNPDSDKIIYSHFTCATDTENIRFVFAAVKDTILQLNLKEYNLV
T1 sequence (O14775 43-395 partner limits assumed): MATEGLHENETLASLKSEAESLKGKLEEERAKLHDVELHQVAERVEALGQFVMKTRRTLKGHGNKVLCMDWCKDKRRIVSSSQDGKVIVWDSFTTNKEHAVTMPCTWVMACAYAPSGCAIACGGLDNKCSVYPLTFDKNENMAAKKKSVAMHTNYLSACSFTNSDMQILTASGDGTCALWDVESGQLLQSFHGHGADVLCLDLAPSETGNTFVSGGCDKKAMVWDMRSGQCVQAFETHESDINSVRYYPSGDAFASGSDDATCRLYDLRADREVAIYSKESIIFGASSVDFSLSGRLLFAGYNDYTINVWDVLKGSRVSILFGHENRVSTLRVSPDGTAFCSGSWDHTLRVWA
Protocol: Hek 293 cells were transfected with CMV-G alpha qHA, CMV-mycRGS-7 and CMV-Gbeta5. 48 hours later the cells were harvested and lysed. Antibody to the myc epitope was utilized to immunoprecipitate RGS-7 in the presence or absence of ALF4-. The precipitated proteins were split into two fractions and loaded onto gels and western blotted on to nitrocellulose. In FIG. 6, the left blot (1) was probed with anti-myc antibody to detect RGS-7. RGS-7 was immunoprecipitated by the anti-myc antibody in the presence and absence of ALF4-. […] A G alpha q protein band was detected to have associated with RGS-7 and precipitated in the presence of ALF4- (lanes A) but not in the absence of ALF4- (lane B). In the second experiment, RGS-7 was immuno-precipitated again with the Myc epitope to which it was fused and the presence of G alpha q was detected in the presence or absence of ALF4- or different concentrations of Compound III. […] This increase in RGS-7 affinity would be predicted to be the same for other RGS7 family members such as RGS 6,9 and 11, as they have been shown previously to have similar affinities and effects on G alpha q. In addition this assay provides a method for screening for compounds that affect the interaction of RGS proteins and G alpha q.
In FIG. 5B, Compounds I, II and III affect the affinity of Gq and RGS proteins for one another. FIG. 5B is an immunoprecipitation blot of myc tagged RGS which has been probed with an anti hemagglutinin antibody to detect a hemagglutinin tagged Gαq. […] The ability of Compounds I, II and III to increase the affinity of Gq and RGS is a novel mechanism by which one can Gαq activity and such compounds and screens for additional compounds with such activity are useful wherever one desires to antagonize g protein signaling that involves Gαq and RGS proteins. […]

rat bladder strips = assay: Isolated rat bladder strips: inhibition of carbachol-evoked contraction
Protocol: Isolated Rat Bladder Strips
Male rats (Harlan, Sprague Dawley, 250-350 g) were sacrificed by decapitation, the bladder removed and cleaned of connective tissue. Strips of bladder were then cut from the bladder body and each was placed in an organ bath, suspended between a fixed hook and a force transducer, containing oxygenated physiological buffer (composition in mM: NaCl 118.4, KCl 4.7, KH2PO4 1.2, MgSO4 1.3, CaCl2 1.8, glucose 10.1, NaHCO3 25, gassed with 95%O2/5%CO2) and maintained at 37° C. Force generated by the bladder strips was recorded and measured using an AcqKnowledge data acquisition system (AcqKnowledge for MP100WS, Biopac Systems Inc., Goleta, Calif.).
The bladder strips were primed by stimulating them with 10 μM carbachol to evoke a contraction. The strips were then washed multiple times with fresh physiological buffer and allowed to fully relax. Following a period of recovery, the strips were again challenged with 10 μM carbachol to produce a contraction; this contractile response served as the control response. The strips were again washed multiple times and allowed to fully relax (45 minutes). Test compound or vehicle was then added to each organ bath. Following a one hour incubation period, the strips were again stimulated with 10 μM carbachol and the contractile response measured.
The percent inhibition of the carbachol response by the test compounds was calculated by comparing control and post-compound carbachol responses corrected for vehicle effects.

[1] = tested on: Gq signaling in Hek 293 kidney cells; assay: [Ca2+]i measurement, carbachol-induced calcium signal in HEK 293 cells; assay type: cell-based, human
Protocol: • 1. HEK 293 or Clonetics primary human bladder smooth muscle cells were plated at a concentration of 7e3 cells/well in Poly-L lysine coated 96 well plates, white with clear bottoms (Costar). • 2. The plates are allowed to attach overnight at 37° C. 5%CO2. The cells were rinsed 2× with Krebs-HEPES buffer and then loaded with 4 uM Fluo4 (Molecular Probes) for 60 minutes in the same buffer containing 1% (wt/vol) Pluronic F-127 and 0.25 mM sulfinpyrazone. • 3. After loading the cells were rinsed 3× with Krebs-HEPES buffer containing 0.5% (wt/vol) BSA (Sigma Chemical) • 4. Buffer alone or buffer containing test compounds, was injected sequentially into separate wells and the fluorescence intensity monitored in a Victor2 96 well plate fluorometer (PE-Wallac). Measurements were taken at 1-s intervals using an excitation wavelength of 485 nm and emissions filter of 535 nm. • 5. Five baseline measurements were taken at 1-s intervals prior to each injection (see FIGS. 4A and 4B).
Calcium assays were run by standard protocols as described above and in Zhu et al., 1998, J. Biol Chem 273:133-142. It is known that calcium signals in response to carbachol have both a Gq and a Go/Gi signaling component. Pertussis toxin is a known inhibitor of Go/Gi signaling in cells. We asked the question if Compound I was inhibiting Gq or Go/Gi signals in Hek 293 kidney cells. […] to block the Go/I but not Gq signals. […] If however Compound I were inhibiting Gq signal specifically, then we would expect the combination of pertussis toxin (hitting Go/Gi) and Gq.

C. elegans = C. elegans compound treatment: neuromuscular and egg-laying phenotypes
Protocol: C. elegans strains were cultured and maintained according to standard procedures (Brenner, 1974; Hodgkin, 1988). All strains were assayed at 20° C. unless otherwise indicated. compound was mixed with killed bacteria slurry (strain OP50, taken through multiple freeze-thaw cycles) to 2× desired final concentration. Adult wildtype (Bristol N2) or mutant hermaphrodites were collected in M9. Worms were mixed 1:1 with compound/bacteria mixture, and plated on peptone-free NGM plates. Plates were allowed to dry, and then placed at 20° C. until assayed. For egg-laying assays, adults were treated overnight with compound. Approximately thirty animals were loaded onto agar pads made on glass slides and examined under Nomarski optics. Animals were scored as egg-laying defective if they contained>comma stage embryos.

Compound	Affinity of RGS7 and Gq (Gq co-precipitated with myc-RGS-7) (RGS7/Gq)	inhibition at 3 µM (rat bladder strips; Rattus norvegicus, 3 μM compound, 1 h incubation, 10 μM carbachol, read-out: Inhibition of the carbachol response)	Carbachol induced calcium influxes [1]	Neuromuscular defects (pharyngeal pumping, body movement, egg-laying) (C. elegans)	Relaxation of bladder smooth muscle strips contracted with carbachol (rat bladder strips)	inhibition at 10 µM (rat bladder strips; Rattus norvegicus, 10 μM compound, 1 h incubation, 10 μM carbachol, read-out: Inhibition of the carbachol response)	Combined effect with pertussis toxin on carbachol calcium signal [1]	Effect on function of human RGS and Gq signaling proteins via Ca++ signaling [1]	Gq versus Go/Gi specificity of calcium signal inhibition ([1]; carbachol)
O=c1[nH]c(-c2ccc(Br)s2)nn1-c1cc(Cl)c(Br)cc1O [Compound II, 2-(4-bromo-5-chloro-2-hydroxyphenyl)-2,4-dihydro-5-(5-bromothien-2-yl)-3H-1,2,4-triazol-3-one]	clearly increase the affinity of Gq for RGS	20 to 40%	blocked	–	–	–	–	–	–
O=c1[nH]c(-c2ccc(C(F)(F)F)cc2)nn1-c1cc(Cl)ccc1O [Compound I]	increase the affinity of RGS7 with Gq; also recorded: clearly increase the affinity of Gq for RGS	–	blocked	causes neuromuscular defects	capable of relaxing strips of bladder smooth muscle	40 to 60%	cumulative	clearly able to effect the function of Gq and RGS	specifically inhibiting Gq signaling and not Go/Gi
Alf4- [reference compound]	increases its affinity with RGS	–	–	–	–	–	–	–	–
